Numbered stars: 1 amine (or outer) side, 2 acyl side, 3 side chain; on linkers, the order of the positions; unused ones are H or OH. Square brackets hold non-standard residues; d marks the D form. Side chains are listed from the residue outwards. Peptide text beside a SMILES is read from it. * marks the point of attachment. C18 diacid = O=C(O)CCCCCCCCCCCCCCCCC(=O)*; γGlu = O=C(O)[C@H](CCC(=O)[*:2])N[*:1]; AEEA = NCCOCCOCC(=O)O; Aib = CC(C)(N)C(=O)O

Data on 2 compounds can be found in US9474790B2, “Stable, protracted GLP-1/glucagon receptor co-agonists for medical use” (Novo Nordisk A/S, priority 2013, dated 2016).

The test concerns DIO mice. Put plainly: In vivo test in diet-induced obese (DIO) mice: body weight and blood glucose. On the set-up: species or system c57bl/6J mice. As to conditions: for Percent BW of baseline at week 5 (mean ± SD): s.c. once daily 5 weeks, co-agonists 5 then 10 nmol/kg, liraglutide 100 nmol/kg. An excerpt:
The purpose of this experiment was to investigate effect of the glucagon-GLP-1R co-agonists from Example 8 and Example 12 on body weight and blood glucose in vivo in DIO mice. Liraglutide (a human GLP-1 analogue marketed by Novo Nordisk NS under the brand name VictozaTM) was included for comparison. Male […]/6J mice obtained from Jackson Lab (USA) were fed a high fat diet (Research Diets D12451, 45% kcal fat) to obtain approximately 50% overweight compared to age-matched lean control mice. The DIO mice are characterized by normoglycemia, insulin resistance and obesity. […] The co-agonists, i.e. the glucagon derivatives, were dissolved in 50 mM Na2HPO4, 145 mM NaCl og 0.05% Tween 80, pH 7.4, while liraglutide was diluted from 6 mg/ml VictozaTM pens in DPBS buffer (Invitrogen) containing 0.5% rat serum albumin. Vehicle treated animals received 50 mM Na2HPO4, 145 mM NaCl og 0.05% Tween 80, pH 7.4. Compounds and vehicle were dosed (1 ml/kg) for 5 weeks s.c. once daily just prior to lights out. For the first half of the study co-agonists were administered at a dose of 5 nmol/kg and for the second half of the study co-agonists were administered at a dose of 10 nmol/kg. For comparison, liraglutide at a dose of 100 nmol/kg, likewise dosed s.c. once daily, was included. Body weight was monitored before dosing, daily during the dosing period. Non-fasted blood glucose was measured on the day of initiation of dosing and weekly during the dosing period, prior to dosing. Blood for measurement of blood glucose was taken from the tail tip capillary and blood glucose was measured using a glucose analyzer (Biosen 5040) based on the glucose oxidase method. The body weight reduction/body weight at the end of the 5 week treatment period and area under the blood glucose curve during the five week treatment period are given in the tables below.

As to `CC(C)C[C@H](NC(=O)[C@H](CC(C)C)NC(=O)[C@H](Cc1c[nH]c2ccccc12)NC(=O)[C@H](CCC(N)=O)NC(=O)[C@@H](NC(=O)[C@H](Cc1ccccc1)NC(=O)[C@H](CCC(=O)O)NC(=O)[C@H](CCC(N)=O)NC(=O)[C@H](C)NC(=O)[C@H](C)NC(=O)[C@H](CCCCN)NC(=O)[C@H](CO)NC(=O)[C@H](CC(=O)O)NC(=O)[C@H](CC(C)C)NC(=O)[C@H](Cc1ccc(O)cc1)NC(=O)[C@H](CCCCN)NC(=O)[C@H](CO)NC(=O)[C@H](CC(C)C)NC(=O)[C@H](CC(=O)O)NC(=O)[C@H](CO)NC(=O)[C@@H](NC(=O)[C@H](Cc1ccccc1)NC(=O)[C@@H](NC(=O)CNC(=O)[C@H](CCC(N)=O)NC(=O)C(C)(C)NC(=O)[C@@H](N)Cc1c[nH]cn1)[C@@H](C)O)[C@@H](C)O)C(C)C)C(=O)N[C@@H](CC(N)=O)C(=O)N[C@@H](CCCCNC(=O)CC[C@H](NC(=O)CC[C@H](NC(=O)COCCOCCNC(=O)COCCOCCNC(=O)CC[C@H](NC(=O)CCCCCCCCCCCCCCCCC(=O)O)C(=O)O)C(=O)O)C(=O)O)C(N)=O` [Example 8, N^ε29-[(4S)-4-carboxy-4-[[(4S)-4-carboxy-4-[[2-[2-[2-[[2-[2-[2-[[(4S)-4-carboxy-4-(17-carboxyheptadecanoylamino)butanoyl]amino]ethoxy]ethoxy]acetyl]amino]ethoxy]ethoxy]acetyl]amino]butanoyl]amino]butanoyl]-[Aib2,Leu10,Lys17,Ala18,Glu21,Leu27,Lys29]-Glucagon amide] (H-H[Aib]QGTFTSDLSKYLDSKAAQEFVQWLLNK([γGlu-γGlu-AEEA-AEEA-γGlu-C18 diacid])-NH2; N-terminus assumed), the “Percent BW of baseline at week 5 (mean ± SD)” value is listed as 88% ± 8%. With `CC(C)C[C@H](NC(=O)[C@H](CC(C)C)NC(=O)[C@H](Cc1c[nH]c2ccccc12)NC(=O)[C@H](CCC(N)=O)NC(=O)[C@@H](NC(=O)[C@H](Cc1ccccc1)NC(=O)[C@H](CCC(=O)O)NC(=O)[C@H](CCCNC(=N)N)NC(=O)[C@H](C)NC(=O)[C@H](CCCNC(=N)N)NC(=O)[C@H](CCCNC(=N)N)NC(=O)[C@H](CO)NC(=O)[C@H](CC(=O)O)NC(=O)[C@H](CC(C)C)NC(=O)[C@H](Cc1ccc(O)cc1)NC(=O)[C@H](CCCCN)NC(=O)[C@H](CO)NC(=O)[C@H](CC(C)C)NC(=O)[C@H](CC(=O)O)NC(=O)[C@H](CO)NC(=O)[C@@H](NC(=O)[C@H](Cc1ccccc1)NC(=O)[C@@H](NC(=O)CNC(=O)[C@H](CCC(N)=O)NC(=O)C(C)(C)NC(=O)[C@@H](N)Cc1c[nH]cn1)[C@@H](C)O)[C@@H](C)O)C(C)C)C(=O)N[C@@H](CC(N)=O)C(=O)N[C@@H](CCCCNC(=O)CC[C@H](NC(=O)CC[C@H](NC(=O)COCCOCCNC(=O)COCCOCCNC(=O)CC[C@H](NC(=O)CCCCCCCCCCCCCCCCC(=O)O)C(=O)O)C(=O)O)C(=O)O)C(N)=O` [Example 12, N^ε29-[(4S)-4-carboxy-4-[[(4S)-4-carboxy-4-[[2-[2-[2-[[2-[2-[2-[[(4S)-4-carboxy-4-(17-carboxyheptadecanoylamino)butanoyl]amino]ethoxy]ethoxy]acetyl]amino]ethoxy]ethoxy]acetyl]amino]butanoyl]amino]butanoyl]-[Aib2,Leu10,Arg20,Glu21,Leu27,Lys29]-Glucagon amide] (H-H[Aib]QGTFTSDLSKYLDSRRAREFVQWLLNK([γGlu-γGlu-AEEA-AEEA-γGlu-C18 diacid])-NH2), the “Percent BW of baseline at week 5 (mean ± SD)” value is 75% ± 8%. In addition, the “lowering of body weight in vivo” value (5 weeks s.c. once daily) is listed as “tends to be superior to liraglutide alone”.
